One data set is described as follows: in vitro. The following applies: rat.
A short description of data set [1]: Stability of analytes in rat plasma. The note with it: n = 6; for Processed sample stability (% ± SD): processed rat plasma sample, 4 h; for Bench top Stability (% ± SD): 25 °C for 4 h; for Freeze-thaw stability (% ± SD): three freeze/thaw cycles.
Procedure: Six replicates of quality control samples were analyzed at four concentration levels (LLOQ, LQC, MQC, and HQC; n = 6) on the same day (intra-day) and repeated for three consecutive days (inter-day) (Table S2). The precision was expressed as the relative standard deviation (% RSD), and accuracy was reported as the relative error (% RE). Later, these samples were analyzed for stability testing under the following conditions: three complete freeze/thaw cycles (−80 °C to 25 °C), long-term sample storage (−80 °C for 60 days), processed sample, and bench-top (25 °C for 4 h).
Another data set is described as follows: in vivo. The following applies: rat; for AUC(0-inf) / AUC(0-t) / Cmax / MRT inf / Tmax / half-life / k el: male, Sprague Dawley. The text has this: It is known that the hydrophobic interior surface of the cell membrane (lipid bilayer) serves as a barrier to the passage of polar and high molecular weight molecules.
Food pellets and tap water were provided ad libitum throughout the experimentation. The protocol to carry out in vivo pharmacokinetics was approved by The Institutional Animal Ethics Committee (IAEC) of Crystal Biological Solution, Pune, Maharashtra, India. […] Eighteen animals were subdivided into three groups, (n = 6) animals in each group. Withania somnifera extract suspension was prepared in water for oral administration, and the dose was calculated based on the acute oral toxicity study (500 mg/kg; single dose). […] The separated plasma samples were transferred into Eppendorf tubes and stored at −80 °C in a deep freezer until analysis. Ten pharmacokinetic parameters were determined using PK solver 2.0, USA [45, 46, 47]. The maximum observed concentration (Cmax) and maximum observed time (Tmax) were calculated directly from the experimental results. The elimination rate constant (Kel) was calculated from the slope of the linear regression of Log concentrations as a function of time. […] The area under the curve (AUC(0–t)) was calculated from the linear curve following the trapezoidal rule, while AUC(0–∞) was calculated by adding Ct/λ, with Ct being the final measurable concentration. Oral clearance (Cl/F) was obtained from the equation Cl/F = dose/AUC(0–∞). Mean residence time (MRT) was calculated as AUMC(0–∞)/AUC(0–∞), where AUMC(0–∞) is the area under the first moment curve. […] The pharmacokinetic parameters as the average of six rats ± SD. The mean plasma concentration Vs. time curve (mean ± SD) was prepared using Prism 8.2, (GraphPad, San Diego, CA, USA).

Another data set relates to chromosomes. As to the method: After completing the study, chromosomal slides were observed under 100×, and the % aberrated chromosomes were calculated.
A short description of data set [2]: Ex vivo permeability study, everted rat intestine apparatus.
Source text: (§1) The everted intestinal segment was mounted on the apparatus and setting it in the beaker. The internal surface of the glass tubes serves as the mucosal compartment, and the beaker serves as the serosal compartment. Animals were humanly sacrificed by cervical dislocation followed by a midline incision. The abdominal cavity was opened carefully, and the intestine was maneuvered to identify the ileocecal junction. A 7 cm long intestinal segment distant to the ileocecal junction (5–6 cm) was excised by carefully removing the mesenteric attachments without causing any damage to the intestinal architecture. The segment was cleaned using the Kreb’s Ringer Bicarbonate (KRB) buffer medium and was stored in KRB buffer in a petri dish. The cleaned segment was then everted gently using a glass rod. Finally, a 3 cm long intestinal segment was used to perform the permeability study [49, 50].
(§2) The tissue was mounted on the apparatus and was placed in a 1000 mL beaker containing 2 mg/mL WSE suspension. The intestinal segment was perfused from the mucosal end using the KRB buffer. The apparatus (beaker with tissue) was placed on the magnetic stirrer followed by continuous stirring using a magnetic bead at 25 rpm to mimic the peristaltic movement of the stomach at 37 °C with appropriate aeration. The sample collection at different time points was carried out every 5 min interval for 1 h. The collected samples were further diluted and analyzed using LC-MS/MS.
(§3) The sample was diluted to 20-fold in ACN and injected 2 µL into LC-MS/MS. Samples were stored at −20 °C until analysis using validated UHPLC-MS/MS. The permeability was obtained by plotting the cumulative amount transported (ng) across the gut sac against time (second).
(§4) The calculation of apparent permeability (Papp) was carried out using the following Equation (1):Papp = dQ/dt × 1/A × C0(1) where Papp: apparent permeability co-efficient; dQ/dt: the cumulative amount of drug (Q) appearing in the acceptor (serosal) compartment as a function of time and was obtained from the slope of the linear portion of the amount transported-versus-time plot. A: Surface area of the intestine (cm^2) (0.18 cm as radius) and C0: Initial concentration of drug in the donor compartment (ng/mL).
The conditions of data set [3]: Balb/C mice, 4 mg/kg single intraperitoneal; cited from earlier work.
The conditions of data set [4]: male rats, cited from earlier work.
For data set [5] the following is noted: mice, oral Withania somnifera aqueous extract 1000 mg/kg; cited from earlier work.
Setting [6] is: high QC (nominal 200.50-201.50 ng/mL).
[7] abbreviates: low QC (nominal 10.05-10.50 ng/mL).
Setting [8] is: rat plasma, high QC (nominal 200.50-201.50 ng/mL).
Setting [9] is: rat plasma, low QC (nominal 10.05-10.50 ng/mL).

Like-named read-outs stand apart in the source and are kept apart here.

Source text for in vitro: as §1, §2, §3, §4

In “in vitro”, `CC1=C(CO)C(=O)OC(C(C)C2CCC3C4C5OC5C5(O)CC=CC(=O)C5(C)C4CCC23C)C1` (stereo not drawn) [12-Deoxy-withastramonolide] came in with a Papp at 1 h, 2 mg/mL of 1.22 nm/s. Besides, in data set [1] (setting [6]), the “Processed sample stability (% ± SD)” value worked out at 92.99 ± 8.83%. Besides, the “Processed sample stability (% ± SD)” value in data set [1] (setting [7]) is 121.14 ± 59.07%. In addition, in data set [1] (setting [8]), the “Bench top Stability (% ± SD)” value came out at 95.97 ± 7.13%, the “Autosampler stability (% ± SD)” value is recorded as 108.67 ± 1.94% and the “Freeze-thaw stability (% ± SD)” value amounted to 97.78 ± 4.28%. Also, in data set [1] (setting [9]), the “Bench top Stability (% ± SD)” value amounted to 97.92 ± 7.04%, the “Autosampler stability (% ± SD)” value is 101.72 ± 3.25% and the “Freeze-thaw stability (% ± SD)” value came to 101.34 ± 8.37%. In “in vivo” (in vivo, po, 500 mg/kg), the AUC(0-inf) was found to be 0.0923 ± 0.0135 µg·h/mL, the AUC(0-t) is 0.0829 ± 0.00782 µg·h/mL, the highest level (Cmax) was 0.0575 ± 0.00752 µg/mL and the MRT inf was found to be 140 ± 40 min. For the same compound, in “in vivo” (in vivo, po, 500 mg/kg), the Tmax was found to be 17.5 ± 6.12 min, the half-life was 104 ± 30.3 min, the k el is 0.000121 s⁻¹ and the “oral clearance (Cl/F)” value is on record as 0.016 ± 0.002 (mg/kg)/(ng/mL)/h.
Consider `O=P1(N(CCCl)CCCl)NCCCO1` (stereo not drawn) [Cyclophosphamide], for which, in the data set on chromosomes, the “% Aberration” value is recorded as 52%, the MI mitotic index is given as 52, the “RCG (%) relative cell growth” value came to 112% and the “RMI (%) relative mitotic index” value is on record as 85%. In addition, the “Ratio with Negative” value with chromosomes is given as 10.40.
In the case of `CC1=C(CO)C(=O)O[C@@H]([C@@H](C)[C@H]2CC[C@H]3[C@@H]4C[C@H]5O[C@]56[C@@H](O)C=CC(=O)[C@]6(C)[C@H]4CC[C@]23C)C1` [Withaferin A], in data set [2], the Papp at 1 h, 2 mg/mL was determined as 1.13 nm/s. In addition, the “Processed sample stability (% ± SD)” value in data set [1] (setting [6]) is listed as 99.56 ± 5.11%. In addition, in data set [1] (setting [7]), the “Processed sample stability (% ± SD)” value worked out at 103.30 ± 8.41%. Besides, in data set [1] (setting [8]), the “Bench top Stability (% ± SD)” value is recorded as 94.72 ± 6.57%, the “Autosampler stability (% ± SD)” value turned out to be 108.40 ± 1.59% and the “Freeze-thaw stability (% ± SD)” value is recorded as 102.10 ± 5.76%. In data set [1] (setting [9]), the “Bench top Stability (% ± SD)” value is 103.30 ± 8.41%, the “Autosampler stability (% ± SD)” value is recorded as 103.09 ± 4.95% and the “Freeze-thaw stability (% ± SD)” value was determined as 103.41 ± 5.62%. This compound also had a Long-term stability (% ± SD) in data set [1] (rat plasma, −80 °C for 60 days, high QC (nominal 200.50-201.50 ng/mL), the values are: measured concentration) of 204 ± 8.81 ng/mL. In the data set “in vivo” (plasma, po, 500 mg/kg), the AUC(0-inf) is 0.188 ± 0.0205 µg·h/mL, the AUC(0-t) is 0.161 ± 0.0189 µg·h/mL, the Cmax amounted to 0.124 ± 0.0649 µg/mL and the MRT inf is 231 ± 51.4 min. In “in vivo” (plasma, po, 500 mg/kg), the Tmax stood at 15 min, the half-life is 189 ± 36.7 min and the k el is 6.28e-05 s⁻¹. In the data set “in vivo” (WSE 500 mg/kg oral single dose), the “oral clearance (Cl/F)” value is listed as 0.026 ± 0.003 (mg/kg)/(ng/mL)/h. For the same compound, in data set [3], the “AUC(0–t)” value is 1090 nM·h, the Clearance from plasma was 0.151 L/h, the Cmax was 1.8 µM and the Tmax is 4.98 min. For the same compound, the plasma half-life in data set [3] was 81.6 min. Moreover, in data set [4] (withaferin A 10 mg/kg oral dose, 5 mg/kg I.V. dose), the bioavailability was 32.4 ± 4.8%. Moreover, in data set [4] (withaferin A 10 mg/kg oral), the Cmax is 0.619 ± 0.125 µg/mL, the Tmax is 6.6 ± 4.2 min and the half-life was 456 ± 198 min. Besides, in data set [5], the Tmax is on record as 20.00 min and the “plasma half-life (t1/2)” value is recorded as 59.92 ± 15.90 min.
On to `CC1=C(C)C(=O)O[C@@H]([C@](C)(O)[C@H]2CC[C@H]3[C@@H]4[C@@H]5O[C@@H]5[C@@]5(O)CC=CC(=O)[C@]5(C)[C@H]4CC[C@]23C)C1` [Withanolide A], for which the Papp at 1 h, 2 mg/mL in “in vitro” came out at 0.665 nm/s. The “Processed sample stability (% ± SD)” value in data set [1] (setting [6]) amounted to 99.36 ± 6.79%. Further, the “Processed sample stability (% ± SD)” value in data set [1] (setting [7]) amounted to 128.43 ± 68.06%. Further, in data set [1] (setting [8]), the “Bench top Stability (% ± SD)” value is given as 103.63 ± 6.10%, the “Autosampler stability (% ± SD)” value worked out at 105.04 ± 3.63% and the “Freeze-thaw stability (% ± SD)” value turned out to be 98.89 ± 4.24%. Further, in data set [1] (setting [9]), the “Bench top Stability (% ± SD)” value came to 102.00 ± 7.99%, the “Autosampler stability (% ± SD)” value stood at 105.35 ± 3.83% and the “Freeze-thaw stability (% ± SD)” value turned out to be 102.18 ± 6.01%. In “in vivo” (in vivo, po, 500 mg/kg), this compound returned an AUC(0-inf) of 0.00753 ± 0.00183 µg·h/mL, an AUC(0-t) of 0.00418 ± 0.00103 µg·h/mL, a Cmax of 0.00728 ± 0.00334 µg/mL and a mean residence time MRT inf of 75 ± 34.3 min. In the data set “in vivo” (in vivo, po, 500 mg/kg), the Tmax stood at 20 ± 7.74 min, the half-life was 43.7 ± 25.4 min, the k el was 0.000391 s⁻¹ and the “oral clearance (Cl/F)” value is 0.356 ± 0.090 (mg/kg)/(ng/mL)/h. In data set [5], the “plasma half-life (t1/2)” value is reported as 45.22 ± 9.95 min.

Source of the values: article PMC8912008, “Pharmacokinetic Study of Withanosides and Withanolides from Withania somnifera Using Ultra-High Performance Liquid Chromatography-Tandem Mass Spectrometry (UHPLC-MS/MS)” (Molecules, 2022).
